Test [1] concerns the target T1, HIV-1 protease (Q7S mutant form) (Human immunodeficiency virus type 1 group M subtype B, UniProt P04585, Q495S).
T1 construct: made in house
Nature of the test: HIV-1 Protease RET assay. The test is classed as biochemical. The conditions noted are these: Ave. Ki (nM), RET assay, Q7S enzyme, Morrison tight binding fit. The procedure, abridged:
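Ki values fitted with the Morrison tight-binding equation from steady-state RET cleavage (ex 340, em 490 nm) of 5 μM RE(EDANS)SQNYPIVQK(DABCYL)R. Buffer pH 4.8 acetate, 1M NaCl, 5 mM DTT, 1 mg/ml BSA, 10% DMSO; 2 nM Q7S mutant dimer, 37 °C, 12 min.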

Test [2] concerns HIV-1 (HIV-1 RF, HIV-1 NL4-3) in CEM-SS / MT-2 cells. Nature of the test: Cytopathic effect (CPE) inhibition assay (XTT/MTT dye reduction). The test is classed as cell-based. The conditions noted are these: Human immunodeficiency virus 1, NL43; read-out: Ave CPE EC50. An outline of the steps:
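Readout is XTT reduction (A450, 4 h) after six days of culturing virus-infected (moi 0.025–0.819) or mock-infected CEM-SS/MT-2 cells, 2×10^4 per well, with half-log compound series. Antiviral EC50 and cytotoxic CC50 are relative to uninfected compound-free cells. Therapeutic index is CC50 divided by EC50.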

Test [3] has as its system HIV-1 NL4-3 or HIV-1 NL4-3(I84V/L90M). Nature of the test: Susceptibility assay, p24 ELISA in infected MT-2 cells. The conditions noted are these: Human immunodeficiency virus 1, NL43, MT2, read-out: EC50 or IC50 (mM), values without asterisk (EC50). Format: cell-based. An outline of the steps:
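MT-2 cells infected with HIV-1 NL4-3 or the I84V/L90M mutant were incubated with 0.5 log serial compound dilutions for three days. Supernatant p24 was quantified by ELISA. EC50 is the concentration reducing p24 to 50% of infected, compound-free controls.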

On to `Cc1c(O)cccc1C(=O)N[C@@H](Cc1ccccc1)[C@H](O)C(=O)N1CC(F)(F)C(C)(C)[C@H]1C(=O)N[C@H]1CCOc2ccccc21` [Example C24, (S)-4,4-Difluoro-1-[(2S,3S)-2-hydroxy-3-(3-hydroxy-2-methyl-benzoylamino)-4-phenyl-butyryl]-3,3-dimethyl-pyrrolidine-2-carboxylic acid (S)-1-benzopyran-4-y], for which, in test [1], the Ki is less than 0.1 nM. In addition, the EC50 in test [2] was determined as 19 nM; in test [3], 74 nM.

`Cc1c(O)cccc1C(=O)N[C@@H](Cc1ccccc1)[C@H](O)C(=O)N1CSC2(CCCC2)[C@H]1C(=O)N[C@H]1CCc2ccccc21` [Example B83, (R)-3-((2S,3S)-2-Hydroxy-3-{[1-(3-hydroxy-2-methyl-phenyl)-methanoyl]-amino}-4-phenyl-butanoyl)-1-thia-3-aza-spiro[4.4]nonane-4-carboxylic acid (S)-indan-1-ylamide] yielded a Ki in test [1] of less than 0.1 nM. The EC50 in test [2] was 9 nM; in test [3] it was 202 nM.

Consider `Cc1ccncc1CNC(=O)[C@H]1N(C(=O)[C@@H](O)[C@H](Cc2ccccc2)NC(=O)c2cccc(O)c2C)CSC1(C)C` [Example A22, 3-(2-Hydroxy-3-{[1-(3-hydroxy-2-methyl-phenyl)-methanoyl]-amino}-4-phenyl-butanoyl)-5,5-dimethyl-thiazolidine-4-carboxylic acid-(4-methyl-pyridin-3-ylmethyl)amide], for which the Ki in test [1] is less than 0.1 nM. The results for the EC50 in test [2] and in test [3] were 138 nM and 318 nM, respectively.

In test [1], `CCCNC(=O)[C@H]1N(C(=O)[C@@H](O)[C@H](Cc2ccccc2)NC(=O)c2cccc(O)c2C)CSC12CCCC2` [Example C33, (R)-3-((2S,3S)-2-Hydroxy-3-{[1-(3-hydroxy-2-methyl-phenyl)-methanoyl]-amino}-4-phenyl-butanoyl)-1-thia-3-aza-spiro[4.4]nonane-4-carboxylic acid propylamide] returned a Ki of 0.13 nM. The EC50 in test [2] turned out to be 45 nM; in test [3], 1270 nM.

For the compound `Cc1c(O)cccc1C(=O)N[C@@H](Cc1ccccc1)[C@H](O)C(=O)N1CC(F)(F)C[C@H]1C(=O)N[C@@H]1C=CCCC1` [Example C4, (S)-4,4-Difluoro-1-((2S,3S)-2-hydroxy-3-{[1-(3-hydroxy-2-methyl-phenyl)-methanoyl]-amino}-4-phenyl-butanoyl)-pyrrolidine-2-carboxylic acid (S)-cyclohex-2-enylamide], the affinity in test [1] corresponds to a Ki of 0.17 nM. The results for the EC50 in test [2] and in test [3] were 236 nM and 1900 nM, respectively.

In test [1], `Cc1c(O)cccc1C(=O)N[C@@H](Cc1ccccc1)[C@H](O)C(=O)N1CC(F)(F)C(C)(C)[C@H]1C(=O)N[C@H]1CCc2ccccc21` [Example C16, (S)-4,4-Difluoro-1-[(2S,3S)-2-hydroxy-3-(3-hydroxy-2-methyl-benzoylamino)-4-phenyl-butyryl]-3,3-dimethyl-pyrrolidine-2-carboxylic acid (S)-indan-1-ylamide] yielded a Ki of less than 0.1 nM. Besides, the EC50 turned out to be 19 nM in test [2] and 201 nM in test [3].

With `CCCNC(=O)[C@H]1N(C(=O)[C@@H](O)[C@H](Cc2ccccc2)NC(=O)c2cccc(O)c2C)CC(F)(F)C1(C)C` [Example C19, (S)-4,4-Difluoro-1-((2S,3S)-2-hydroxy-3-{[1-(3-hydroxy-2-methyl-phenyl)-methanoyl]-amino}-4-phenyl-butanoyl)-3,3-dimethyl-pyrrolidine-2-carboxylic acid propylamide], the Ki in test [1] is less than 0.1 nM. The EC50 in test [2] was determined as 55 nM; in test [3] it was 84 nM.

In turn, `Cc1c(O)cccc1C(=O)N[C@@H](Cc1ccccc1)[C@H](O)C(=O)N1CSC(C)(C)[C@H]1C(=O)N[C@H]1CCCc2occc21` (stereo in doubt) [Example A48, 3-[2-Hydroxy-3-(3-hydroxy-2-methyl-benzoylamino)-4-phenyl-butyryl]-5,5-dimethyl-thiazolidine-4-carboxylic acid (4,5,6,7-tetrahydro-benzofuran-4-yl)-amide] gave a Ki in test [1] of less than 0.1 nM. In addition, the EC50 in test [2] came out at 37 nM; in test [3], 92 nM.

(Values after US7094909B2, “HIV protease inhibitors, compositions containing the same, their pharmaceutical uses and materials for their synthesis” (priority 2001, dated 2006).)
